Assay results: publication PMC6491884, “Synthesis and Biological Evaluation of 4β-N-Acetylamino Substituted Podophyllotoxin Derivatives as Novel Anticancer Agents” (Frontiers in Chemistry, 2019)
Where two headings read alike, the source gives them in different places.

Experiments:
[1] = tested on: T24 (human bladder carcinoma); experiment: MTT growth inhibition assay, T24; assay type: cell-based; conditions: T24, 48 h
Experimental: (§1) Target compounds 12a–t were evaluated for in vitro cytotoxicity against four human tumor cell lines, including H460 (non-small cell lung carcinoma), HeLA (human cervical carcinoma), EC9706 (human esophageal squamous cell carcinoma), and T24 (human bladder carcinoma), using HaCaT (human immortalized epidermal cells) as a human non-malignant cell line. Etoposide (3) was included as a positive control. The screening procedure was based on the 3-(4, 5-dimethylthiazol-2-yl)-2, 5-diphenyltetrazoliun bromide (MTT) growth inhibition assay with triplicate experiments, and the results are summarized in Table 1.
(§2) The four human cancer cell lines and a normal human epidermal cell line of the screening panel, including H460 (human non-small cell lung carcinoma), HeLA (human cervical carcinoma), EC9706 (human esophageal squamous cell carcinoma), T24 (human bladder carcinoma), and HaCaT (human immortalized epidermal cells), were purchased from American Type Culture Collection (ATCC, Manassas, VA, U.S.A.). H460, EC9706, and T24 were maintained in RPMI 1640 medium containing 10% Fetal Bovine Serum, 100 units/ml penicillin, 100 μg/ml streptomycin under humidified incubator with 5% CO2 atmosphere at 37°C. HeLA and HaCaT were maintained in Dulbecco′s […] (DMEM) supplemented with 10% Fetal Bovine Serum 100 units/ml penicillin, 100 μg/ml streptomycin in a humidified incubator and 5% CO2 atmosphere at 37°C. Logarithmically growing cells were used for the following experiments.
(§3) The cytotoxicity of the synthesized compounds 12a–t against a panel of human cell lines was determined by the 3-(4,5-dimethylthiazol-2-yl)-2,5-diphenyltetrazoliun bromide (MTT) growth inhibition assay. The five human cell lines were, respectively, plated in 96-well-culture plates at the density of 1 × 10^5 cells per well and incubated for 24 h. Cells were exposed to different concentrations of synthetic podophyllotoxin derivatives for 48 h. MTT was added with a dose of 5 mg/mL in phosphate-buffered saline. After incubation for 4 h at 37°C, the purple formazan crystals were dissolved with […] dimethyl sulfoxide and the absorbance was measured at 570 nm in an ELISA reader. Antiproliferative activity was expressed using the IC50 value defined as the concentration of synthetic podophyllotoxin derivatives inhibiting cell proliferation by 50%. The cell viability ratio was calculated by the following formula: cell viability ratio (%) = OD treated /OD control × 100% (Ma et al., [2014]).

[2] = tested on: H460 (human non-small cell lung carcinoma); experiment: MTT growth inhibition assay, H460; assay type: cell-based
Experimental: as §1, §2, §3

[3] = tested on: EC9706 (human esophageal squamous cell carcinoma); experiment: MTT growth inhibition assay, EC9706; assay type: cell-based
Experimental: as §1, §2, §3

[4] = tested on: HaCaT (human immortalized epidermal cells); experiment: MTT growth inhibition assay, HaCaT normal cells; assay type: cell-based; conditions: 48 h
Experimental: as §1, §2, §3

[5] = tested on: HeLA (human cervical carcinoma); experiment: MTT growth inhibition assay, HeLA; assay type: cell-based; conditions: 48 h
Experimental: as §1, §2, §3

[6] = tested on: four human cancer cell lines (EC-9706, HeLA, T-24 and H460) and a normal human epidermal cell line (HaCaT); experiment: MTT growth inhibition assay, whole cell line panel; assay type: cell-based; conditions: read-out: IC50 values across the cell lines
Experimental: as §1, with “1. […]” for “1.”
The cytotoxicity of the synthesized compounds 12a–t against a panel of human cell lines was determined by the 3-(4,5-dimethylthiazol-2-yl)-2,5-diphenyltetrazoliun bromide (MTT) growth inhibition assay. […] After incubation for 4 h at 37°C, the purple formazan crystals were dissolved with […] dimethyl sulfoxide and the absorbance was measured at 570 nm in an ELISA reader. […] The cell viability ratio was calculated by the following formula: cell viability ratio (%) = OD treated /OD control × 100% (Ma et al., [2014]).

[7] = read-out: IC50 (μM) T24, MTT, 48 h, n = 3
[8] = NCI-H460, 48 h, read-out: IC50 (μM) H460
[9] = EC9706, 48 h, read-out: IC50 (μM) EC9706
[10] = read-out: IC50 (μM) HaCaT, MTT, 48 h, n = 3, normal cell line
[11] = Homo sapiens, read-out: IC50 (μM) HeLA, MTT, 48 h, n = 3

Row | IC50 ([1]; MTT, 48 h, n = 3, read-out: IC50 (μM) T24) | IC50 ([2]; NCI-H460, MTT, 48 h, n = 3, read-out: IC50 (μM) H460) | IC50 ([3]; EC9706, MTT, 48 h, n = 3, read-out: IC50 (μM) EC9706) | IC50 ([5]; Homo sapiens, MTT, n = 3, read-out: IC50 (μM) HeLA) | Compound | IC50 [1, 7] | melting point | IC50 [2, 8] | IC50 [3, 9] | IC50 [4, 10] | IC50 [5, 11] | IC50 [6] | IC50 ([5]; read-out: IC50 (μM) HeLA, MTT, n = 3) | IC50 ([4]; MTT, n = 3, normal cell line, read-out: IC50 (μM) HaCaT) | IC50 ([6]; MTT, span over the cell line panel)
1 |  |  |  |  | COc1cc([C@@H]2c3cc4c(cc3[C@@H](NC(=O)CN3CCCC3)[C@H]3COC(=O)[C@H]23)OCO4)cc(OC)c1O [Compound 12a] | > 50 µM | 113 to 116 °C | 9.61 ± 0.22 µM | > 50 µM | 18.2 ± 1.28 µM | 12.7 ± 1.38 µM |  |  |  | 
2 |  |  |  |  | COc1cc([C@@H]2c3cc4c(cc3[C@@H](NC(=O)CN3CCCCC3)[C@H]3COC(=O)[C@H]23)OCO4)cc(OC)c1O [Compound 12b] | > 50 µM | 107 to 110 °C | 5.91 ± 0.65 µM | > 50 µM | 5.17 ± 0.36 µM | 5.72 ± 0.74 µM |  |  |  | 
3 |  |  |  |  | COc1cc([C@@H]2c3cc4c(cc3[C@@H](NC(=O)CN3CCCCC3)[C@H]3COC(=O)[C@H]23)OCO4)cc(OC)c1OC [Compound 12c] | > 50 µM | 229 to 231 °C | > 50 µM | > 50 µM | 1.89 ± 0.27 µM | > 50 µM |  |  |  | 
4 |  |  |  |  | COc1cc([C@@H]2c3cc4c(cc3[C@@H](NC(=O)CN3CCOCC3)[C@H]3COC(=O)[C@H]23)OCO4)cc(OC)c1O [Compound 12d, 4β-N-[2′′-(morpholino)-acetamide]-4′-demethylpodophyllotoxin] | > 50 µM | 109 to 111 °C | > 50 µM | > 50 µM | > 50 µM | > 50 µM |  |  |  | 
5 |  |  |  |  | COc1cc([C@@H]2c3cc4c(cc3[C@@H](NC(=O)CN3CCOCC3)[C@H]3COC(=O)[C@H]23)OCO4)cc(OC)c1OC [Compound 12e, 4β-N-[(2′′-morpholino)-acetamide]-podophyllotoxin] | > 50 µM | 119 to 121 °C | > 50 µM | > 50 µM | > 50 µM | > 50 µM |  |  |  | 
6 |  |  |  |  | CCCNCC(=O)N[C@@H]1c2cc3c(cc2[C@@H](c2cc(OC)c(O)c(OC)c2)[C@H]2C(=O)OC[C@@H]21)OCO3 [Compound 12f] | 18.6 ± 1.57 µM | 199 to 202 °C | 2.54 ± 0.34 µM | 11.7 ± 0.26 µM | 2.59 ± 0.13 µM | 23.9 ± 1.04 µM |  |  |  | 
7 |  |  |  |  | CCCCNCC(=O)N[C@@H]1c2cc3c(cc2[C@@H](c2cc(OC)c(O)c(OC)c2)[C@H]2C(=O)OC[C@@H]21)OCO3 [Compound 12h] | 12.1 ± 1.28 µM | 115 to 118 °C | 1.57 ± 0.37 µM | 22.8 ± 0.32 µM | 1.54 ± 0.29 µM | 1.21 ± 0.31 µM | 1.2 to 22.8 µM |  |  | 
8 |  |  |  |  | CCCCNCC(=O)N[C@@H]1c2cc3c(cc2[C@@H](c2cc(OC)c(OC)c(OC)c2)[C@H]2C(=O)OC[C@@H]21)OCO3 [Compound 12i] | > 50 µM | 92 to 95 °C | 37.8 ± 1.01 µM | > 50 µM | > 50 µM | > 50 µM |  |  |  | 
9 |  |  |  |  | CCN(CC)CC(=O)N[C@@H]1c2cc3c(cc2[C@@H](c2cc(OC)c(O)c(OC)c2)[C@H]2C(=O)OC[C@@H]21)OCO3 [Compound 12k] | > 50 µM | 106 to 108 °C | > 50 µM | > 50 µM | > 50 µM | 45.8 ± 0.71 µM |  |  |  | 
10 |  |  |  |  | COc1cc([C@@H]2c3cc4c(cc3[C@@H](NC(=O)CN(CCO)CCO)[C@H]3COC(=O)[C@H]23)OCO4)cc(OC)c1O [Compound 12l] | > 50 µM | 212 to 214 °C | > 50 µM | > 50 µM | 4.21 ± 0.17 µM | > 50 µM |  |  |  | 
11 |  |  |  |  | COc1cc([C@@H]2c3cc4c(cc3[C@@H](NC(=O)CN(CCO)CCO)[C@H]3COC(=O)[C@H]23)OCO4)cc(OC)c1OC [Compound 12m] | > 50 µM | 105 to 107 °C | > 50 µM | > 50 µM | > 50 µM | 36.4 ± 0.49 µM |  |  |  | 
12 |  |  |  |  | COc1cc([C@@H]2c3cc4c(cc3[C@@H](NC(=O)CNCc3ccccc3)[C@H]3COC(=O)[C@H]23)OCO4)cc(OC)c1O [Compound 12n] | > 50 µM | 141 to 143 °C | 16.5 ± 0.39 µM | 40.1 ± 2.43 µM | 13.3 ± 0.8 µM | 6.26 µM |  | 6.25 ± 0.21 µM |  | 
13 |  |  |  |  | COc1cc([C@@H]2c3cc4c(cc3[C@@H](NC(=O)CNCc3ccccc3)[C@H]3COC(=O)[C@H]23)OCO4)cc(OC)c1OC [Compound 12o] | > 50 µM | 111 to 113 °C | 26.9 ± 0.92 µM | 11.3 ± 0.22 µM | 2.14 ± 0.33 µM | 8.55 ± 0.28 µM |  |  |  | 
14 |  |  |  |  | COc1cc([C@@H]2c3cc4c(cc3[C@@H](NC(=O)CNc3ccc(F)cc3)[C@H]3COC(=O)[C@H]23)OCO4)cc(OC)c1O [Compound 12p] | > 50 µM | 159 to 162 °C | 9.75 ± 0.26 µM | > 50 µM | > 50 µM | > 50 µM |  |  |  | 
15 |  |  |  |  | COc1ccc(CCNCC(=O)N[C@@H]2c3cc4c(cc3[C@@H](c3cc(OC)c(O)c(OC)c3)[C@H]3C(=O)OC[C@@H]32)OCO4)cc1OC [Compound 12q] | > 50 µM | 229 to 231 °C | 3.43 ± 0.17 µM | 20.7 ± 0.72 µM | 3.69 ± 0.19 µM | 4.57 ± 0.3 µM |  |  |  | 
16 |  |  |  |  | COc1ccc(CCNCC(=O)N[C@@H]2c3cc4c(cc3[C@@H](c3cc(OC)c(OC)c(OC)c3)[C@H]3C(=O)OC[C@@H]32)OCO4)cc1OC [Compound 12r] | > 50 µM | 106 to 108 °C | > 50 µM | > 50 µM | > 50 µM | > 50 µM |  |  |  | 
17 |  |  |  |  | COc1cc([C@@H]2c3cc4c(cc3[C@@H](NC(=O)CNCCc3ccc(O)cc3)[C@H]3COC(=O)[C@H]23)OCO4)cc(OC)c1O [Compound 12s] | 12.7 ± 0.73 µM | 234 to 236 °C | 5.94 ± 0.18 µM | 14.3 ± 0.69 µM | 8.67 ± 0.72 µM | 2.27 ± 0.26 µM |  |  |  | 
18 |  |  |  |  | COc1cc([C@@H]2c3cc4c(cc3[C@@H](NC(=O)CNCCc3ccc(O)cc3)[C@H]3COC(=O)[C@H]23)OCO4)cc(OC)c1OC [Compound 12t] | > 50 µM | 116 to 119 °C | 42.1 ± 1.21 µM | > 50 µM | > 50 µM | > 50 µM |  |  |  | 
19 | 8.43 ± 0.33 µM | 43.2 ± 1.45 µM | > 50 µM | 3.12 ± 0.35 µM | COc1cc([C@@H]2c3cc4c(cc3[C@@H](O[C@@H]3O[C@@H]5CO[C@@H](C)O[C@H]5[C@H](O)[C@H]3O)[C@H]3COC(=O)[C@H]23)OCO4)cc(OC)c1O [Etoposide, etoposide, reference compound] |  |  |  |  |  |  |  |  | 48.7 ± 1.69 µM | 8.4 to 78.2 µM
